Data reported in patent publication US20120028897A1, “METHODS AND COMPOSITIONS FOR THE TREATMENT OF FLUID RETENTION DISORDERS” (priority 2008, published 2012).
“Also recorded” adds a separate entry of the source.

Tests used:
anesthetized rats [1] = assay: Mean arterial blood pressure during and after iv peptide infusion; format: in vivo, rat
Experimental: (§1) Rats were not fasted prior to clearance experiments and ranged in weight from 250-340 g at the time of study. Anesthesia was induced with an intraperitoneal injection of pentobarbital sodium (55 mg/kg BW) and maintained at a surgical plane by intermittent intravenous supplementation. Core temperature was maintained at 37° C. by a servo-controlled, heated operating table. Animals breathed spontaneously through a PE240 cannula inserted into the trachea. A jugular vein was catheterized with PE50 cannula tubing for intravenous infusion of isotonic saline containing FITC-labeled inulin (0.4% W/V, Sigma, St Louis Mo.) and two PE10 cannulae, one for supplemental anesthetic and the other for peptide infusions (described below in the experimental protocol section). The ureters were exposed through a midline ventral incision and cannulated with PE10 tubing about one cm from each kidney. Urine was collected over 20 min periods and the volume estimated by weight. A femoral artery was cannulated with PE50 tubing for continuous measurement of arterial blood pressure and intermittent blood samples (50 μl), taken at the mid point of each urine collection.
(§2) Arterial blood pressure was measured with a pressure transducer connected to a cardiovascular analyzer (Model 50110, Stoelting Instruments Wood Dale, Ill.). Left renal blood flow was measured in some rats with a flow probe positioned on the left renal artery and connected to a blood flow monitor (model 1 PRB probe and model T420 monitor, Transonic Systems Inc. Ithaca N.Y.). Arterial pressure, heart rate, and renal blood flow were digitized with an A/D converter (Keithley instruments, Cleveland, Ohio Model KUSB 3100) for display and storage on a Windows-based personal computer using open layers data acquisition software (Dtx_Ez, Data Translation Inc, Marlboro, Mass.). Sodium and potassium concentrations in plasma and urine were measured by flame photometry (Model 943, Instrumentation Laboratory Co., Lexington Mass.). Glomerular filtration rate (GFR) was measured as the renal clearance rate of FITC-labeled inulin
(§3) After post-surgical equilibration (−60 min) and three 20 min control clearance periods, huUgnA or B was infused into the jugular vein at 10 μl/min over a 60 min period, followed by a return to isotonic saline for the remainder of the experiment. The infused doses of huUgnA were 12, 25, 50, 100, or 200 nmol/kg BW in a total of 38 rats; huUgnB doses were 9, 18, 35, 70, and 140 nmol/kg BW in 35 rats. A UgnA mimetic, E. coli STh (ST-core), was infused into a third group of 32 rats at doses of 17, 32, 66, 133, and 266 nmol/kg. Renal excretory responses to these infusions were slow to develop and long lasting, so clearance periods were continued for 2-3 hr after the termination of the peptide infusion. This protracted time course limited protocols to one dose of one peptide in each rat. A control group of 10 rats received isotonic saline at 10 μl/min in place of the peptide infusion, but was otherwise treated in the same way as the experimental groups.
Group comparisons were made with one way analysis of variance (ANOVA) using peptide doses as column variables. Columns were further divided into pre-infusion, infusion, and post infusion subgroups to facilitate post hoc testing with Bonferroni's method for selected multiple comparisons. Row variables were individual measurements from each clearance period for each rat. Responses were tested for statistical significance by comparing control values during the pre-infusion, infusion and post infusion collection periods with corresponding values obtained from peptide-infused rats. Each experimental group included 5 different doses of huUgnA, huUgnB, or ST-core. Thus, fifteen comparisons were required for each measured variable in each group.

[2] = molecular target: cultured GC-C-expressing cells (Homo sapiens, UniProt P25092); settings: cited from earlier work
cultured GC-C-expressing cells, sequence (P25092 24-1073): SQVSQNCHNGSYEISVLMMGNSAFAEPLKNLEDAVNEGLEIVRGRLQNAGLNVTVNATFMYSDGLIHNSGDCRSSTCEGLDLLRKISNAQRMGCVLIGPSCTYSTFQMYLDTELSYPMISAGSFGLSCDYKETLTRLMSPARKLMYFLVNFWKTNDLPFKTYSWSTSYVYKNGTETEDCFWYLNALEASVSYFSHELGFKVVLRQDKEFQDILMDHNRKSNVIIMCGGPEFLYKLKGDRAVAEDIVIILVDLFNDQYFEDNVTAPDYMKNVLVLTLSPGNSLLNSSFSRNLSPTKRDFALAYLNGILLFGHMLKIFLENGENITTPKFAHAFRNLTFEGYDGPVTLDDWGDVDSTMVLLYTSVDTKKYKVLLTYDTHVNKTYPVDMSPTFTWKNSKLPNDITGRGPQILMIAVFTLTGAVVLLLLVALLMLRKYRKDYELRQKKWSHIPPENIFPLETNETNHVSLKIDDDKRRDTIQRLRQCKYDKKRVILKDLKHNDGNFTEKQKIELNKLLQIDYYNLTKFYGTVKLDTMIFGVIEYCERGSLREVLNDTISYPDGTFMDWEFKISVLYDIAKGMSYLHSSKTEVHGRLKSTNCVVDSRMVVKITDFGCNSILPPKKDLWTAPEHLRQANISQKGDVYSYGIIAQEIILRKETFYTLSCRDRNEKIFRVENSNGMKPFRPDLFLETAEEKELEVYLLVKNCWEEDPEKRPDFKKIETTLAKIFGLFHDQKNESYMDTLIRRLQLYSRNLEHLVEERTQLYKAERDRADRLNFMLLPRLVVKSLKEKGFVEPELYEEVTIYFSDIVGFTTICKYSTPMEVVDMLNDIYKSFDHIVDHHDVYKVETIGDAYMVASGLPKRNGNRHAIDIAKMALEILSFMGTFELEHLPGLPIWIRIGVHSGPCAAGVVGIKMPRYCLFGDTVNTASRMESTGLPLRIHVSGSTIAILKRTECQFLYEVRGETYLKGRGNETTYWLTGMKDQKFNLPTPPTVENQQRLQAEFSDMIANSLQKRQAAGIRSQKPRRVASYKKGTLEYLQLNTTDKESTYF

anesthetized rats [3] = assay: Renal blood flow (flow probe on left renal artery); format: in vivo, rat
Experimental: as §2, §3

anesthetized rats [4] = assay: Renal sodium excretion during and after iv peptide infusion in anesthetized rats; format: in vivo, rat
Experimental: as §1
All rats received a continuous intravenous infusion (10 μl/min/100 g BW) of isotonic saline containing FITC-labeled inulin for measurement of inulin clearance. Uncongugated FITC label and small inulin polymers were removed from the inulin solution by overnight dialysis against isotonic saline (SpectraPor 6 dialysis membrane, 1 kDa cutoff-limit, Spectrum Laboratories, Rancho Domingo, Calif.). Undissolved particulates were removed from the solution by filtration through a […] filter before each experiment (Steriflip, Millipore Inc. Billerica, Mass.). At least one hr was allowed for equilibration before the start of urine collections, at which point plasma inulin concentration had stabilized at an average value of 30±3 μg/ml.
as §2, §3
The effects of combined infusions of huUgnA and B were investigated in two groups of rats that received 35 nmol/kg of huUgnB together with either 25 nmol/kg (n=5) or 100 nmol/kg of huUgnA (n=5). […]

[5] = huUgnB 35 nmol, Post-infuse, *** p<0.005 vs time control

In the case of `CC(C)C[C@H](NC(=O)[C@@H]1CSSC[C@@H]2NC(=O)[C@H](CC(C)C)NC(=O)[C@H](CCC(=O)O)NC(=O)[C@@H](NC(=O)[C@H](CC(=O)O)NC(=O)[C@H](CC(=O)O)NC(=O)[C@@H](N)CC(N)=O)CSSC[C@H](NC(=O)[C@H](C)NC(=O)[C@H](C(C)C)NC(=O)[C@H](CC(N)=O)NC(=O)[C@H](C(C)C)NC2=O)C(=O)N[C@@H]([C@@H](C)O)C(=O)NCC(=O)N1)C(=O)O` (single isomer, unassigned) [huUgnB, Asn Asp Asp Cys Glu Leu Cys Val Asn Val Ala Cys Thr Gly Cys Leu], the “BP (mean arterial blood pressure)” value (anesthetized rats [1]; huUgnB 9 nmol, Infusion) is reported as 108 ± 6 mmHg, the “BP (mean arterial blood pressure)” value (anesthetized rats [1]; huUgnB 9 nmol, Post-infuse) is reported as 107 ± 5 mmHg and the “BP (mean arterial blood pressure)” value (anesthetized rats [1]; huUgnB 9 nmol, Pre-infuse) is reported as 115 ± 5 mmHg. For the same compound, the “BP (mean arterial blood pressure)” value (anesthetized rats [1]; huUgnB 18 nmol, Infusion) was 117 ± 3 mmHg, the “BP (mean arterial blood pressure)” value (anesthetized rats [1]; huUgnB 18 nmol, Post-infuse) was 113 ± 3 mmHg and the “BP (mean arterial blood pressure)” value (anesthetized rats [1]; huUgnB 18 nmol, Pre-infuse) was 124 ± 2 mmHg. For the same compound, the “BP (mean arterial blood pressure)” value (anesthetized rats [1]; huUgnB 35 nmol, Infusion) was 108 ± 4 mmHg, the “BP (mean arterial blood pressure)” value (anesthetized rats [1]; huUgnB 35 nmol, Post-infuse) was 107 ± 3 mmHg and the “BP (mean arterial blood pressure)” value (anesthetized rats [1]; huUgnB 35 nmol, Pre-infuse) was 118 ± 3 mmHg. For the same compound, the “BP (mean arterial blood pressure)” value (anesthetized rats [1]; huUgnB 70 nmol, Infusion) was 107 ± 5 mmHg, the “BP (mean arterial blood pressure)” value (anesthetized rats [1]; huUgnB 70 nmol, Post-infuse) was 107 ± 4 mmHg and the “BP (mean arterial blood pressure)” value (anesthetized rats [1]; huUgnB 70 nmol, Pre-infuse) was 119 ± 3 mmHg. The “BP (mean arterial blood pressure)” value (anesthetized rats [1]; huUgnB 140 nmol, Infusion) was 119 ± 5 mmHg, the “BP (mean arterial blood pressure)” value (anesthetized rats [1]; huUgnB 140 nmol, Post-infuse) was 117 ± 5 mmHg and the “BP (mean arterial blood pressure)” value (anesthetized rats [1]; huUgnB 140 nmol, Pre-infuse) was 123 ± 5 mmHg. For the same compound, the “potency, fold less potent than the A isomer” value [2] was “more than 100 fold”, the “Renal blood flow (RBF)” value (anesthetized rats [3]; 35 nmol huUgnB/kg, before (first value of change), n=4) was 2.5+0.1 ml/min/g KW and the “Renal blood flow (RBF)” value (anesthetized rats [3]; after 35 nmol huUgnB/kg, p<0.001, n=4) was 3.0+0.4 ml/min/g KW. The “net cumulative sodium excretion, co-infusion” value (anesthetized rats [4]; huUgnA 25 nmol/kg combined with huUgnB 35 nmol/kg) was “did not produce an additive response; also recorded: not different from the natriuresis evoked by A25 or B35 alone”, the “net cumulative sodium excretion, co-infusion” value (anesthetized rats [4]; huUgnA 100 nmol/kg combined with huUgnB 35 nmol/kg) was “almost completely suppressed; also recorded: significantly less than the response to B35 alone” and the “FENa (fractional sodium excretion)” value (anesthetized rats [4]; huUgnB 9 nmol, Infuse) was 0.09 ± 0.02 % of filtered. The “UNaV (sodium excretion)” value (anesthetized rats [4]; huUgnB 9 nmol, Infusion) was 134.6 ± 53 nEq/min/g KW, the “FENa (fractional sodium excretion)” value (anesthetized rats [4]; huUgnB 9 nmol, Post-infuse) was 0.21 ± 0.04 % of filtered and the “UNaV (sodium excretion)” value (anesthetized rats [4]; huUgnB 9 nmol, Post-infuse) was 195 ± 37 nEq/min/g KW. The “FENa (fractional sodium excretion)” value (anesthetized rats [4]; huUgnB 9 nmol, Pre-infuse) was 0.05 ± 0.01 % of filtered, the “UNaV (sodium excretion)” value (anesthetized rats [4]; huUgnB 9 nmol, Pre-infuse) was 67 ± 17 nEq/min/g KW and the “FENa (fractional sodium excretion)” value (anesthetized rats [4]; huUgnB 18 nmol, Infuse) was 0.12 ± 0.03 % of filtered. The “UNaV (sodium excretion)” value (anesthetized rats [4]; huUgnB 18 nmol, Infusion) was 155.2 ± 34 nEq/min/g KW, the “FENa (fractional sodium excretion)” value (anesthetized rats [4]; huUgnB 18 nmol, Post-infuse) was 0.42 ± 0.08 % of filtered and the “UNaV (sodium excretion)” value (anesthetized rats [4]; huUgnB 18 nmol, Post-infuse, *** p<0.005 vs time control) was 538 ± 81*** nEq/min/g KW. The “FENa (fractional sodium excretion)” value (anesthetized rats [4]; huUgnB 18 nmol, Pre-infuse) was 0.07 ± 0.01 % of filtered, the “UNaV (sodium excretion)” value (anesthetized rats [4]; huUgnB 18 nmol, Pre-infuse) was 83 ± 19 nEq/min/g KW and the “FENa (fractional sodium excretion)” value (anesthetized rats [4]; huUgnB 35 nmol, Infuse) was 0.27 ± 0.07 % of filtered. The “UNaV (sodium excretion)” value (anesthetized rats [4]; huUgnB 35 nmol, Infusion) was 229.4 ± 47 nEq/min/g KW, the “FENa (fractional sodium excretion)” value (anesthetized rats [4]; [5]) was 0.62 ± 0.10*** % of filtered and the “UNaV (sodium excretion)” value (anesthetized rats [4]; [5]) was 729 ± 73*** nEq/min/g KW. For the same compound, the “FENa (fractional sodium excretion)” value (anesthetized rats [4]; huUgnB 35 nmol, Pre-infuse) was 0.12 ± 0.02 % of filtered, the “UNaV (sodium excretion)” value (anesthetized rats [4]; huUgnB 35 nmol, Pre-infuse) was 132 ± 40 nEq/min/g KW and the “FENa (fractional sodium excretion)” value (anesthetized rats [4]; huUgnB 70 nmol, Infuse) was 0.24 ± 0.14 % of filtered. The “UNaV (sodium excretion)” value (anesthetized rats [4]; huUgnB 70 nmol, Infusion) was 285.7 ± 165 nEq/min/g KW, the “FENa (fractional sodium excretion)” value (anesthetized rats [4]; huUgnB 70 nmol, Post-infuse, * p<0.05 vs time control) was 0.52 ± 0.10* % of filtered and the “UNaV (sodium excretion)” value (anesthetized rats [4]; huUgnB 70 nmol, Post-infuse, *** p<0.005 vs time control) was 696 ± 151*** nEq/min/g KW. For the same compound, the “FENa (fractional sodium excretion)” value (anesthetized rats [4]; huUgnB 70 nmol, Pre-infuse) was 0.08 ± 0.03 % of filtered, the “UNaV (sodium excretion)” value (anesthetized rats [4]; huUgnB 70 nmol, Pre-infuse) was 87 ± 31 nEq/min/g KW and the “FENa (fractional sodium excretion)” value (anesthetized rats [4]; huUgnB 140 nmol, Infuse) was 0.18 ± 0.05 % of filtered. The “UNaV (sodium excretion)” value (anesthetized rats [4]; huUgnB 140 nmol, Infusion) was 212.1 ± 67 nEq/min/g KW, the “FENa (fractional sodium excretion)” value (anesthetized rats [4]; huUgnB 140 nmol, Post-infuse, ** p<0.01 vs time control) was 0.65 ± 0.11** % of filtered and the “UNaV (sodium excretion)” value (anesthetized rats [4]; huUgnB 140 nmol, Post-infuse, *** p<0.005 vs time control) was 906 ± 170*** nEq/min/g KW. The “FENa (fractional sodium excretion)” value (anesthetized rats [4]; huUgnB 140 nmol, Pre-infuse) was 0.08 ± 0.01 % of filtered, the “UNaV (sodium excretion)” value (anesthetized rats [4]; huUgnB 140 nmol, Pre-infuse) was 103 ± 8 nEq/min/g KW and the “ED50, net cumulative sodium excretion over three hours” value (anesthetized rats [4]; infused over first hour, log agonist response curve, FIG. 6A) was 19 nmol/kg. For the same compound, the “ED50, net cumulative sodium excretion” value (anesthetized rats [4]; log(agonist) vs response fit, p<0.02) was “about 20 nmol UgnB/kg BW”, the “UNaV time course, ANOVA vs control” value (anesthetized rats [4]; post infusion periods after 18, 35, 70, and 140 nmol/kg (p<0.001 for all)) was “significant natriuretic response” and the “doses producing significant natriuresis (net excretory values)” value (anesthetized rats [4]; rat, in vivo) was “above 9 nmol”. The “shape of natriuretic dose-response relationship” value (anesthetized rats [4]; rat, in vivo) was “conventional”.
